The supplement of paper PMC10331698
± gives the standard deviation of the averaged measurements.

Assays:
Assay in all cases: LOEC (log10 uM (lowest observed effect concentration))
[1] = compound: C=CC(=O)OCC(F)(F)C(F)(F)C(F)(F)C(F)(F)COC(=O)C=C [1H,1H,6H,6H-Perfluorohexane-1,6-diol diacrylate]
Procedure: (§1)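 BioMAP Diversity Plus panel in human primary cell co-cultures, 4 concentrations in duplicate blinded samples. Responses are log10 fold change versus DMSO control, processed with tcpl v2.1.0. A hit is called when responses at any concentration exceed the cutoff (the larger of 3*bmad or log10(1.2)); the lowest observed effect concentration (modl_ga, log10 uM) is reported for hits.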

[2] = compound: FC(F)(I)C(F)(F)C(F)(F)C(F)(F)C(F)(F)C(F)(F)I [1,6-Diiodoperfluorohexane]
Procedure: as §1

[3] = compound: O=S(=O)(OCC(F)(F)F)C(F)(F)C(F)(F)C(F)(F)C(F)(F)F [2,2,2-Trifluoroethyl perfluorobutanesulfonate]
Procedure: as §1

[4] = compound: OCCC(F)(F)C(F)(F)C(F)(F)C(F)(F)C(F)(F)C(F)(F)C(F)(F)C(F)(F)F [8:2 Fluorotelomer alcohol]
Procedure: as §1

[5] = compound: OCCCC(F)(F)C(F)(F)C(F)(F)C(F)(F)C(F)(F)C(F)(F)C(F)(F)C(F)(F)F [3-(Perfluorooctyl)propanol]
Procedure: as §1

[6] = compound: C=CC(=O)OCC(F)(F)C(F)(F)C(F)(F)C(F)(F)C(F)(F)C(F)(F)C(F)(F)C(F)F [1H,1H,9H-Perfluorononyl acrylate]
Procedure: as §1

Perfluoropinacol = compound: OC(C(F)(F)F)(C(F)(F)F)C(O)(C(F)(F)F)C(F)(F)F [Perfluoropinacol]
Procedure: as §1

[7] = compound: OCC(F)(F)C(F)(F)C(F)(F)C(F)(F)C(F)(F)C(F)(F)C(F)(F)C(F)(F)CO [1H,1H,10H,10H-Perfluorodecane-1,10-diol]
Procedure: as §1

[8] = compound: O=C(CC(=O)C(F)(F)C(F)(F)C(F)(F)F)c1cccs1 [(Perfluorobutyryl)-2-thenoylmethane]
Procedure: as §1

[9] = compound: OCC(F)(F)C(F)(F)C(F)(F)C(F)(F)C(F)(F)C(F)(F)C(F)(F)C(F)(F)C(F)(F)C(F)(F)C(F)(F)F [11:1 Fluorotelomer alcohol]
Procedure: as §1

Perfluorooctanoic acid = compound: O=C(O)C(F)(F)C(F)(F)C(F)(F)C(F)(F)C(F)(F)C(F)(F)C(F)(F)F [Perfluorooctanoic acid]
Procedure: as §1

[10] = compound: OCC(F)(F)C(F)(F)C(F)(F)C(F)(F)C(F)(F)C(F)(F)F [6:1 Fluorotelomer alcohol]
Procedure: as §1

Methotrexate = compound: CN(Cc1cnc2nc(N)nc(N)c2n1)c1ccc(C(=O)N[C@@H](CCC(=O)O)C(=O)O)cc1 [Methotrexate]
Procedure: as §1

[11] = compound: O=C(O)C(F)(F)C(F)(F)C(F)(F)C(F)(F)C(F)(F)C(F)(F)C(F)(F)F [Ammonium perfluorooctanoate]
Procedure: as §1

[12] = compound: FC(F)(F)C(F)(F)C(F)(F)C(F)(F)CCI [1H,1H,2H,2H-Perfluorohexyl iodide]
Procedure: as §1

[13] = compound: Cc1ccc(S(=O)(=O)OCC(F)(F)C(F)(F)C(F)(F)C(F)(F)C(F)(F)C(F)F)cc1 [1H,1H,7H-Perfluoroheptyl 4-methylbenzenesulfonate]
Procedure: as §1

Row | Test System | LOEC (log10 uM) [1] | LOEC (log10 uM) [2] | LOEC (log10 uM) [3] | LOEC (log10 uM) [4] | LOEC (log10 uM) [5] | LOEC (log10 uM) [6] | LOEC (log10 uM) (Perfluoropinacol) | LOEC (log10 uM) [7] | LOEC (log10 uM) [8] | LOEC (log10 uM) [9] | LOEC (log10 uM) (Perfluorooctanoic acid) | LOEC (log10 uM) [10] | LOEC (log10 uM) (Methotrexate) | LOEC (log10 uM) [11] | LOEC (log10 uM) [12] | LOEC (log10 uM) [13]
1 | LPS TNFa down | 1.3 | 1.3 | 1.78 | 1.78 | 0.573 ± 0.39 |  |  |  |  |  |  |  |  |  |  | 
2 | MyoF ACTA1 down | 0.845 | 0.573 ± 0.39 |  | 1.3 | 1.07 ± 0.32 | 1.78 | 1.3 | 1.78 |  |  |  |  |  |  |  | 
3 | 3C Thrombomodulin down |  |  |  |  | 1.78 | 1.54 ± 0.34 |  |  |  |  |  |  |  |  |  | 
4 | IMphg MIP1a down |  | 1.54 ± 0.34 | 1.54 ± 0.34 |  | 1.54 ± 0.34 |  |  | 1.78 |  |  |  |  |  |  |  | 
5 | IMphg CD40 down | 1.3 | 1.3 |  | 1.78 | 1.3 |  | 1.3 | 1.54 ± 0.34 | 1.3 | 0.301 |  |  |  |  |  | 
6 | MyoF CollagenIII down | 1.3 | 0.845 |  | 1.3 | 1.3 | 1.78 | 1.3 | 1.78 | 1.3 |  |  |  |  |  |  | 
7 | BF4T tPA down | 1.3 | 0.845 |  | 1.07 ± 0.32 | 1.3 |  |  | 1.3 | 0.573 ± 0.39 |  | 1.31 ± 0.66 |  |  |  |  | 
8 | BT xIL17F down | 0.573 ± 0.39 | 1.54 ± 0.34 |  | 1.78 | 1.3 | 1.3 | 1.54 ± 0.34 | 1.78 | 1.3 |  |  | 1.78 |  |  |  | 
9 | BT sIgG down | 0.845 | 1.78 |  | 1.78 | 1.78 |  | 0.845 | 1.78 | 1.3 |  |  |  | 0 |  |  | 
10 | BE3C MMP1 up | 1.3 |  |  |  |  |  |  |  |  |  | 1.78 |  |  | 1.3 |  | 
11 | hDFCGF IP10 down | 0.301 | 0.845 | 1.78 | 1.3 | 0.845 | 1.78 | 1.3 | 1.78 | 1.3 |  |  | 1.78 |  |  |  | 
12 | CASM3C VCAM1 down | 0.845 | 1.3 |  | 1.07 ± 0.32 | 1.07 ± 0.32 | 1.07 ± 0.32 | 1.78 | 1.78 | 1.54 ± 0.34 |  |  |  |  |  |  | 
13 | hDFCGF VCAM1 down | 0.301 | 0.845 |  | 1.3 | 0.845 | 1.3 | 1.3 | 1.54 ± 0.34 |  |  |  | 1.78 |  |  | 1.78 | 
14 | SAg CD40 down | 1.07 ± 0.32 | 1.78 |  | 1.54 ± 0.34 | 1.54 ± 0.34 | 1.78 | 1.3 |  | 0.845 |  |  |  |  |  |  | 
15 | 4H Eotaxin3 down | 1.3 | 1.3 |  | 1.54 ± 0.34 | 1.3 |  | 1.3 |  | 1.3 |  |  |  |  |  | 1.78 | 
16 | SAg SRB down | 1.3 | 1.78 |  | 1.3 | 1.3 |  | 1.3 |  | 1.3 |  |  |  |  |  |  | 1.78
17 | MyoF VCAM1 down | 0.845 | 0.573 ± 0.39 |  | 1.3 | 1.07 ± 0.32 | 1.78 | 1.78 | 1.78 |  |  |  |  |  |  |  | 

Row | Test System | LOEC (log10 uM) [1] | LOEC (log10 uM) [2] | LOEC (log10 uM) [3] | LOEC (log10 uM) [4] | LOEC (log10 uM) [5] | LOEC (log10 uM) [6] | LOEC (log10 uM) (Perfluoropinacol) | LOEC (log10 uM) [7] | LOEC (log10 uM) [8] | LOEC (log10 uM) [9] | LOEC (log10 uM) (Perfluorooctanoic acid) | LOEC (log10 uM) [10] | LOEC (log10 uM) (Methotrexate) | LOEC (log10 uM) [11] | LOEC (log10 uM) [12] | LOEC (log10 uM) [13]
18 | hDFCGF CollagenIII up |  |  |  |  |  |  |  |  |  | -0.699 |  |  |  |  |  | 
19 | hDFCGF CollagenIII down |  | 0.845 |  | 1.3 | 1.3 |  | 1.78 | 1.78 | 1.3 |  |  | 1.31 ± 0.66 |  | 1.78 |  | 
20 | BT PBMCCytotoxicity up |  |  |  |  |  |  |  |  |  |  | 1.78 |  |  |  |  | 
21 | LPS IL8 up |  |  |  |  |  |  |  |  |  |  | 1.78 |  |  |  |  | 
22 | BT xIL17F up |  |  |  |  |  |  |  |  |  | -1.22 |  |  |  |  |  | 
23 | hDFCGF ITAC down | 0.301 | 0.845 | 1.78 | 1.3 | 0.845 | 1.54 ± 0.34 | 0.801 ± 0.71 | 1.78 | 1.3 |  |  |  |  |  | 1.78 | 
24 | IMphg ESelectin down | 1.3 | 1.3 |  | 1.78 | 1.07 ± 0.32 |  | 1.3 | 1.54 ± 0.34 | 1.07 ± 0.32 |  |  |  |  |  |  | 
25 | hDFCGF TIMP2 down | 1.07 ± 0.32 |  |  | 0.801 ± 0.71 | 1.3 |  | 1.3 |  | 1.07 ± 0.32 |  |  |  |  |  | 1.78 | 
26 | 4H Pselectin down | 1.07 ± 0.32 | 1.3 |  | 1.3 | 1.3 |  | 1.3 |  | 1.3 |  |  | 1.78 |  |  |  | 
27 | hDFCGF MCP1 down | 0.845 | 0.845 |  | 1.3 | 0.845 |  |  | 1.54 ± 0.34 | 1.3 |  |  |  |  |  |  | 1.07 ± 0.32
28 | 4H VCAM1 down | 1.3 | 1.3 |  | 1.54 ± 0.34 | 1.54 ± 0.34 |  | 1.3 | 1.78 | 1.3 |  |  |  |  |  |  | 
29 | BT xTNFa down | 0.301 | 1.3 |  | 1.54 ± 0.34 | 1.3 | 1.3 | 1.78 | 1.78 | 1.3 |  |  | 1.78 |  |  |  | 
30 | BE3C IL8 down | 1.3 | 1.78 |  | 1.3 | 1.3 |  | 1.3 | 1.54 ± 0.34 | 1.78 | -0.222 |  |  |  |  |  | 
31 | IMphg SRB.Mphg down |  | 1.3 |  | 1.78 | 1.07 ± 0.32 |  | 1.78 | 1.54 ± 0.34 | 1.78 | -0.222 |  |  |  |  |  | 
32 | IMphg IL8 up |  |  |  | 1.78 |  |  | 1.07 ± 0.32 |  | 1.78 |  | 1.78 |  |  | 1.78 |  | 
33 | BT PBMCCytotoxicity down | 0.845 | 1.78 |  | 1.54 ± 0.34 | 1.54 ± 0.34 | 1.3 | 1.78 | 1.78 | 1.78 | -0.199 ± 0.71 |  |  |  |  |  | 
